The values that follow are results of earlier work, collected in patent US11737994B2, “Topical compositions for pain relief, manufacture and use” (priority 2014, dated 2023).

Molecules are shown by their SMILES.

For the data set the following is noted: in words.

With `CCCCCCCCC(=O)NCc1ccc(O)c(OC)c1` [Nonivamide, vanillylamide of n-nonanoic acid], the Heat stability entry is reported as “more heat-stable than capsaicin”.
